How the values were obtained:
[1] = test system: Synechococcus sp. PCC 7002; test: Tolerance testing to 1,2-propanediol added to culture medium; assay type: cell-based; conditions: one week
Source text: (§1) The tolerance of cyanobacterial strains PCC 6803 and PCC 7002 to the presence of accumulated 1,2-propanediol in the culture medium was examined by adding a one time bolus of varying amounts of 1,2-propanediol (1%, 2%, 3% and 5%) to exponential phase cultures and comparing the growth of these cultures to a wild type culture with no addition. Growth was monitored by optical density (OD750) for one week. […] PCC 7002.

[2] = test system: Synechocystis sp. PCC 6803; test: as above; assay type: cell-based; conditions: one week
Source text: as §1

[3] = 1%, 2%, 3% and 5% 1,2-propanediol
[4] = up to 3% 1,2-propanediol, one time bolus to exponential phase culture

## CC(O)CO (centres unmarked) [1,2-propanediol]
[1]; [3]
  lethal effect (complete bleaching): No lethal effect
[1]; [4]
  growth of cultures (OD750) compared to wild type culture with no addition: no difference in the growth
[2]; [3]
  lethal effect (complete bleaching): No lethal effect
[2]; 5% 1,2-propanediol, one time bolus
  growth of cultures (OD750) compared to wild type culture with no addition: less growth, discoloration and clumping
[2]; [4]
  growth of cultures (OD750) compared to wild type culture with no addition: no difference in the growth

From US20140113342A1, “Production of 1,2-Propanediol in Cyanobacteria” (Algenol Biofuels Inc., priority 2012, published 2014)
